Data taken from patent US10081624B2, “Heterocyclic compound” (Takeda Pharmaceutical Company Limited, priority 2014, dated 2018).

target: T1, HDAC6 enzyme (Homo sapiens, UniProt Q9UBN7); test: HDAC6 enzyme inhibitory assay (HDAC-Glo I/II Assay kit); format: biochemical; details: 1 μM test compound; read-out: HDAC6 inhibitory rate (%) (1 μM)
T1 construct: prepared by transducing full length HDAC1 and HDAC6 genes into Sf-9 insect cells; GST; purchased SignalChem; host or cells: Sf-9 insect cells
T1 sequence (Q9UBN7 1-1215): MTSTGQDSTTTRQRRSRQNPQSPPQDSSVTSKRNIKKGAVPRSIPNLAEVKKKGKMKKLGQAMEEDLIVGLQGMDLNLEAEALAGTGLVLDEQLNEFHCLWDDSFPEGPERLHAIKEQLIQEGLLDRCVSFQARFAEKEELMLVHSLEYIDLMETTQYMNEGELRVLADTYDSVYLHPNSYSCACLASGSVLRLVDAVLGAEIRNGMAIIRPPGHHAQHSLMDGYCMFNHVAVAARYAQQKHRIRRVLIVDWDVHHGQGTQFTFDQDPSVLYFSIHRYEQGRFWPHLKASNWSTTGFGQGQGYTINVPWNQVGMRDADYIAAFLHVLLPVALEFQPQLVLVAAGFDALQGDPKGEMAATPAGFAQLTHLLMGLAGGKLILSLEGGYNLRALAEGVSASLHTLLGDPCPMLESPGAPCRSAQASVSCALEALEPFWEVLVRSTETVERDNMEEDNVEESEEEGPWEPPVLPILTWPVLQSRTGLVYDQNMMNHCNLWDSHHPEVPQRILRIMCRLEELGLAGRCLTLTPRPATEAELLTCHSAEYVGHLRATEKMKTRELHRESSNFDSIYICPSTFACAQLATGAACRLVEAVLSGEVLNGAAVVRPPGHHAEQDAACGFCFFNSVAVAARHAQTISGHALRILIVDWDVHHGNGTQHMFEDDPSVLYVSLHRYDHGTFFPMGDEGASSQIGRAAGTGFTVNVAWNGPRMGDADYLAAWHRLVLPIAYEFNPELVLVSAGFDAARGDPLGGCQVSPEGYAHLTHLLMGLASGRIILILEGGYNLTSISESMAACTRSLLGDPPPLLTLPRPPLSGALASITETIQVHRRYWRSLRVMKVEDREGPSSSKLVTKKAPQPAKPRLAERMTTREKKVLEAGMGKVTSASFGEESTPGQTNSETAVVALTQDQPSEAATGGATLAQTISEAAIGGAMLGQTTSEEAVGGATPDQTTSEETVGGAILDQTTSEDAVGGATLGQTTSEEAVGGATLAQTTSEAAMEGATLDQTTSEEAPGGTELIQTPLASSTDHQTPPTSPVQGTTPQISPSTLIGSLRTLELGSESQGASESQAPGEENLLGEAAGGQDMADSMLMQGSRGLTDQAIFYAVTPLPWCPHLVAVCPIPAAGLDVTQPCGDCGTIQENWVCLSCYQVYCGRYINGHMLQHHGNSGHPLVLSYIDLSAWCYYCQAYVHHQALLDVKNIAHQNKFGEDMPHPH
Protocol: HDAC1 enzyme and HDAC6 enzyme each prepared by transducing full length HDAC1 and HDAC6 genes into Sf-9 insect cells and purifying by GST affinity column were purchased from SignalChem. Using these enzymes, HDAC1 and/or HDAC6 enzyme inhibitory activities of the compound of the present invention were evaluated. Enzymes were used after preserved at −70° C. HDAC1 or HDAC6 enzyme inhibitory activity of the compound of the present invention was measured using HDAC-Glo™ I/II Assay kit (Promega) according to the following experimental method. The test compound diluted with assay buffer (24 mM Tris-HCl (pH 7.5), 1 mM MgCl2, 0.35 mM KCl, 135 mM NaCl, 0.6 mM Glutathione, 0.01% Tween-20) was added to a 384-well plate by each 2 μL. Then, HDAC1 or HDAC6 enzyme solution diluted with assay buffer was added thereto by each 4 μL, and the plate was incubated at room temperature for 60 min. After incubated, HDAC substrate-Developer solution prepared according to Promega protocol attached to the assay kit was added to the 384-well plate by each 2 μL, and the enzyme reaction was started. After reacting at room temperature for 20 min, luminescence level was measured using plate reader Envision (PerkinElmer). The inhibitory activity of each compound was calculated as a relative activity value when luminescence level in wells without enzyme is considered as 100% inhibition.

SMILES | inhibition at 1 µM [%]
O=C(NC[C@H]1COCCN1C(=O)c1ccncc1)c1ccc(-c2noc(C(F)(F)F)n2)cn1 [Example 191, N-(((3S)-4-isonicotinoylmorpholin-3-yl)methyl)-5-(5-(trifluoromethyl)-1,2,4-oxadiazol-3-yl)pyridine-2-carboxamide] | 96
Cc1cc(C(=O)N2CCOCC2CNC(=O)c2ccc(-c3noc(C(F)(F)F)n3)cc2)ccn1 (stereo in doubt) [Example 121, N-(((3R)-4-(2-methylisonicotinoyl)morpholin-3-yl)methyl)-4-(5-(trifluoromethyl)-1,2,4-oxadiazol-3-yl)benzamide] | 87
O=C(NCC1Cc2ccccc2CN1C(=O)c1cc(Cl)cc(Cl)c1)c1ccc(-c2noc(C(F)(F)F)n2)cc1 (stereo not shown) [Example 176, N-((2-(3,5-dichlorobenzoyl)-1,2,3,4-tetrahydroisoquinolin-3-yl)methyl)-4-(5-(trifluoromethyl)-1,2,4-oxadiazol-3-yl)benzamide] | 82
Cn1cc(C(=O)N2CCOC[C@H]2CNC(=O)c2ccc(-c3noc(C(F)(F)F)n3)cc2)cn1 [Example 138, N-(((3R)-4-((1-methyl-1H-pyrazol-4-yl)carbonyl)morpholin-3-yl)methyl)-4-(5-(trifluoromethyl)-1,2,4-oxadiazol-3-yl)benzamide] | 85
O=C(NC[C@H]1COCCN1C(=O)C1CCOCC1)c1ccc(-c2noc(C(F)(F)F)n2)cc1 [Example 81, N-(((3S)-4-(tetrahydro-2H-pyran-4-ylcarbonyl)morpholin-3-yl)methyl)-4-(5-(trifluoromethyl)-1,2,4-oxadiazol-3-yl)benzamide] | 94
Cc1nnsc1C(=O)N1CCOC[C@H]1CNC(=O)c1ccc(-c2noc(C(F)(F)F)n2)cc1 [Example 140, N-(((3R)-4-((4-methyl-1,2,3-thiadiazol-5-yl)carbonyl)morpholin-3-yl)methyl)-4-(5-(trifluoromethyl)-1,2,4-oxadiazol-3-yl)benzamide] | 92
O=C(NC[C@H]1COCCN1C(=O)COc1ccccc1)c1ccc(-c2noc(C(F)(F)F)n2)cc1 [Example 58, N-(((3S)-4-(phenoxyacetyl)morpholin-3-yl)methyl)-4-(5-(trifluoromethyl)-1,2,4-oxadiazol-3-yl)benzamide] | 93
O=C(NCC1c2ccccc2CN1C(=O)C1CC1)c1ccc(-c2noc(C(F)(F)F)n2)cc1 (stereo not shown) [Example 169, N-((2-(cyclopropylcarbonyl)-2,3-dihydro-1H-isoindol-1-yl)methyl)-4-(5-(trifluoromethyl)-1,2,4-oxadiazol-3-yl)benzamide] | 84
Cn1nc(C(F)(F)F)cc1C(=O)N1CCOC[C@H]1CNC(=O)c1ccc(-c2noc(C(F)(F)F)n2)cc1 [Example 136, N-(((3R)-4-((1-methyl-3-(trifluoromethyl)-1H-pyrazol-5-yl)carbonyl)morpholin-3-yl)methyl)-4-(5-(trifluoromethyl)-1,2,4-oxadiazol-3-yl)benzamide] | 92
Cc1ncsc1C(=O)N1CCOC[C@@H]1CNC(=O)c1ccc(-c2noc(C(F)(F)F)n2)cn1 [Example 196, N-(((3S)-4-((4-methyl-1,3-thiazol-5-yl)carbonyl)morpholin-3-yl)methyl)-5-(5-(trifluoromethyl)-1,2,4-oxadiazol-3-yl)pyridine-2-carboxamide] | 96
Cc1nn(C)c(C)c1C(=O)N1CCOC[C@H]1CNC(=O)c1ccc(-c2noc(C(F)(F)F)n2)cc1 [Example 139, 4-(5-(trifluoromethyl)-1,2,4-oxadiazol-3-yl)-N-(((3R)-4-((1,3,5-trimethyl-1H-pyrazol-4-yl)carbonyl)morpholin-3-yl)methyl)benzamide] | 63
Cn1nccc1C(=O)N1CCOC[C@H]1CNC(=O)c1ccc(-c2noc(C(F)(F)F)n2)cc1 [Example 154, N-(((3R)-4-((1-methyl-1H-pyrazol-5-yl)carbonyl)morpholin-3-yl)methyl)-4-(5-(trifluoromethyl)-1,2,4-oxadiazol-3-yl)benzamide] | 89
Cc1csc(C(=O)N2CCOC[C@@H]2CNC(=O)c2ccc(-c3noc(C(F)(F)F)n3)cc2)c1 [Example 73, N-(((3S)-4-((4-methyl-2-thienyl)carbonyl)morpholin-3-yl)methyl)-4-(5-(trifluoromethyl)-1,2,4-oxadiazol-3-yl)benzamide] | 98

The remaining lines, values ahead:

inhibition at 1 µM [%] | SMILES
97 | O=C(NC[C@H]1COCCN1C(=O)c1cccc(F)c1)c1ccc(-c2noc(C(F)(F)F)n2)cn1 [Example 185, N-(((3S)-4-(3-fluorobenzoyl)morpholin-3-yl)methyl)-5-(5-(trifluoromethyl)-1,2,4-oxadiazol-3-yl)pyridine-2-carboxamide]
95 | O=C(NCC1COCCN1C(=O)c1ccncc1)c1ccc(-c2noc(C(F)(F)F)n2)s1 (stereo not shown) [Example 226, N-((4-isonicotinoylmorpholin-3-yl)methyl)-5-(5-(trifluoromethyl)-1,2,4-oxadiazol-3-yl)thiophene-2-carboxamide]
95 | O=C(NCC1COCCN1C(=O)c1cc(F)cc(F)c1)c1ccc(-c2noc(C(F)(F)F)n2)s1 (stereo not shown) [Example 213, N-((4-(3,5-difluorobenzoyl)morpholin-3-yl)methyl)-5-(5-(trifluoromethyl)-1,2,4-oxadiazol-3-yl)thiophene-2-carboxamide]
97 | O=C(NCC1COCCN1C(=O)c1ccno1)c1ccc(-c2noc(C(F)(F)F)n2)s1 (stereo not shown) [Example 239, N-((4-(1,2-oxazol-5-ylcarbonyl)morpholin-3-yl)methyl)-5-(5-(trifluoromethyl)-1,2,4-oxadiazol-3-yl)thiophene-2-carboxamide]
98 | Cc1ncsc1C(=O)N1CCOCC1CNC(=O)c1ccc(-c2noc(C(F)(F)F)n2)s1 (stereo not shown) [Example 238, N-((4-((4-methyl-1,3-thiazol-5-yl)carbonyl)morpholin-3-yl)methyl)-5-(5-(trifluoromethyl)-1,2,4-oxadiazol-3-yl)thiophene-2-carboxamide]
95 | N#Cc1cc(F)cc(C(=O)N2CCOC[C@H]2CNC(=O)c2ccc(-c3noc(C(F)(F)F)n3)cc2)c1 [Example 156, N-(((3R)-4-(3-cyano-5-fluorobenzoyl)morpholin-3-yl)methyl)-4-(5-(trifluoromethyl)-1,2,4-oxadiazol-3-yl)benzamide]
94 | N#Cc1ccccc1C(=O)N1CCOCC1CNC(=O)c1ccc(-c2noc(C(F)(F)F)n2)s1 (stereo not shown) [Example 217, N-((4-(2-cyanobenzoyl)morpholin-3-yl)methyl)-5-(5-(trifluoromethyl)-1,2,4-oxadiazol-3-yl)thiophene-2-carboxamide]
94 | O=C(NCC1COCCN1C(=O)c1cccs1)c1ccc(-c2noc(C(F)(F)F)n2)s1 (stereo not shown) [Example 241, N-((4-(2-thienylcarbonyl)morpholin-3-yl)methyl)-5-(5-(trifluoromethyl)-1,2,4-oxadiazol-3-yl)thiophene-2-carboxamide]
38 | Cn1cnc(C(=O)N2CCOCC2CNC(=O)c2ccc(-c3noc(C(F)(F)F)n3)s2)c1 (stereo not shown) [Example 234, N-((4-((1-methyl-1H-imidazol-4-yl)carbonyl)morpholin-3-yl)methyl)-5-(5-(trifluoromethyl)-1,2,4-oxadiazol-3-yl)thiophene-2-carboxamide]
